Experiment [1] addresses Human mitochondrial SHMT2 (Homo sapiens (Human), UniProt P34897). Nature of the experiment: SHMT2 activity inhibition assay (serine production from glycine and CH2-THF, mass spectroscopy). The conditions noted are these: 60 minutes at room temperature. Format: biochemical. From the text: (§1) Full length human cytosolic Serine Hydroxymethyl transferase 1 (SHMT1, residues 1-483 in Uniport ID P34896) was expressed as an N-terminal His6 tagged protein and purified in E. coli using nickel capture followed by size-exclusion chromatography. Human mitochondrial SHMT2 (residues 30-504 in Uniprot ID P34897) with mitochondrial leader sequence deleted was expressed as an N-terminal His6 tagged protein and purified in E. coli using nickel capture followed by size-exclusion chromatography.
Serine hydroxymethyltransferases catalyze the reversible hydroxymethylation of glycine to serine, with methylene tetrahydrofolate (CH2-THF) providing the additional carbon. SHMT1 and SHMT2 activity was determined by measuring serine production from glycine and CH2-THF using mass spectroscopy. Briefly, 15 ul of 0.5 mM glycine and 0.2 mM CH2-THF in 20 mM TEA, pH8.0, 0.2 mM NADPH were added to 384 well plate containing 0, 0.05 mM, 0.005 mM or 0.0005 mM of inhibitor. […] The plate was incubated for 60 minutes at room temperature and the reaction was quenched by the addition of 30 ul of 10% trichloroacetic acid. Serine produced was analyzed using Rapidfire 360 and API4000^+ in the positive ion mode.

Experiment [2] has as its target human cytosolic Serine Hydroxymethyl transferase 1 (SHMT1) (Homo sapiens (Human), UniProt P34896). The experiment in a line: SHMT1 activity inhibition assay (serine production from glycine and CH2-THF, mass spectroscopy). Format: biochemical. The conditions noted are these: 60 minutes at room temperature.
Description: as §1
Serine hydroxymethyltransferases catalyze the reversible hydroxymethylation of glycine to serine, with methylene tetrahydrofolate (CH2-THF) providing the additional carbon. SHMT1 and SHMT2 activity was determined by measuring serine production from glycine and CH2-THF using mass spectroscopy. Briefly, 15 ul of 0.5 mM glycine and 0.2 mM CH2-THF in 20 mM TEA, pH8.0, 0.2 mM NADPH were added to 384 well plate containing 0, 0.05 mM, 0.005 mM or 0.0005 mM of inhibitor. 15 ul of SHMT1 or 2 were added to initiate the reaction. The plate was incubated for 60 minutes at room temperature and the reaction was quenched by the addition of 30 ul of 10% trichloroacetic acid. Serine produced was analyzed using Rapidfire 360 and API4000^+ in the positive ion mode.

Molecules are shown by their SMILES. pIC50: −log10 of the molar value.

The pIC50 is the IC50 on a negative log10 scale, so that one unit is a factor of ten. A low value points to a high IC50.

Human mitochondrial SHMT2, sequence (P34897 30-504): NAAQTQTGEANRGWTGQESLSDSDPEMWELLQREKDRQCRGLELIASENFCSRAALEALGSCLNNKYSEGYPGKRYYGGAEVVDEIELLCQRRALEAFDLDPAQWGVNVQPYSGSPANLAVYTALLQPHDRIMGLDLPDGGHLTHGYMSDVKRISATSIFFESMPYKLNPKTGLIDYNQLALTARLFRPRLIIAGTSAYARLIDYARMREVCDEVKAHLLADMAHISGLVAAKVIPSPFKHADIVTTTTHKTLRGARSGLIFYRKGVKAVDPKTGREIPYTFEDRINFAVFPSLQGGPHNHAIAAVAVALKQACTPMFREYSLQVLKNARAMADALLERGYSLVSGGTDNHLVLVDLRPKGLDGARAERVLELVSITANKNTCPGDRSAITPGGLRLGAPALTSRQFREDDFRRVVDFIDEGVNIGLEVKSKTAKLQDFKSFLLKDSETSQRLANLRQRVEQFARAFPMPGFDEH
human cytosolic Serine Hydroxymethyl transferase 1 (SHMT1), sequence (P34896 whole entry): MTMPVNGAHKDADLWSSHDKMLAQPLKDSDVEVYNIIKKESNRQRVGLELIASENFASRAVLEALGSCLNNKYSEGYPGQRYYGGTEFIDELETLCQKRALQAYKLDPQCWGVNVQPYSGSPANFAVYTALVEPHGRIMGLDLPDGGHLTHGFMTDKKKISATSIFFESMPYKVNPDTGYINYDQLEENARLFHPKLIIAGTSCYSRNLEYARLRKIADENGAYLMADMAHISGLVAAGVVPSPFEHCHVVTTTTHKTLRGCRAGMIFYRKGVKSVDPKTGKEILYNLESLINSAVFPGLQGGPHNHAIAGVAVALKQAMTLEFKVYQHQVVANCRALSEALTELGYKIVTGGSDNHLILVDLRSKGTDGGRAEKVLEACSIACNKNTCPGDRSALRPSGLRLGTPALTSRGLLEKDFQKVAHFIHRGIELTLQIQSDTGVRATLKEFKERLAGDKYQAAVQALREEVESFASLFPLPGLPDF

`O=C(O)CNC(=O)Cc1cccc(-c2ccc(Cl)cc2Cl)c1` [Compound I-41]: the pIC50 in experiment [1] and in experiment [2] was 4.00 to 5.00 each time.

Take `O=C(Cc1csc(-c2ccc(Cl)cc2Cl)n1)N[C@@H](Cc1ccccc1)C(=O)O` [Compound I-42]: the figures for the negative logarithm of the IC50 (pIC50) in experiment [1] and in experiment [2] were 3.30 to 4.00 and 4.00 to 5.00, respectively.

With `CC(NC(=O)Cc1csc(-c2cccc(Br)c2)n1)C(=O)O` (stereo not drawn) [Compound I-43], the pIC50 in experiment [1] and in experiment [2] was 4.00 to 5.00 throughout.

As for `NC(=O)NCCC[C@@H](NC(=O)Cc1csc(-c2ccc(F)cc2)n1)C(=O)O` [Compound I-44], the pIC50 is 3.30 to 4.00 in experiment [1] and 4.00 to 5.00 in experiment [2].

For `O=C(Cc1csc(-c2ccc(Cl)cc2Cl)n1)NC1(C(=O)O)CC1` [Compound I-45], the pIC50 in experiment [1] and in experiment [2] was 4.00 to 5.00 in each case.

As for `O=C(O)CNC(=O)Cc1csc(-c2ccc(Cl)cc2Cl)n1` [Compound I-46], the pIC50 in experiment [1] and in experiment [2] was 4.00 to 5.00 each time.

With `CC(C)C[C@H](NC(=O)Cc1csc(-c2ccc(Cl)cc2Cl)n1)C(=O)O` [Compound I-47], the pIC50 in experiment [1] and in experiment [2] was 3.30 to 4.00 throughout.

As for `CSCC[C@H](NC(=O)Cc1csc(-c2ccc(Cl)cc2Cl)n1)C(=O)O` [Compound I-48], the pIC50 in experiment [1] and in experiment [2] was 3.30 to 4.00 throughout.

On to `O=C(Cc1csc(-c2cccc(Cl)c2)n1)N[C@@H](Cc1c[nH]c2ccccc12)C(=O)O` [Compound I-49], for which the pIC50 in experiment [1] and in experiment [2] was 3.30 to 4.00 each time.

As to `O=C(O)CNC(=O)Cc1csc(-c2ccc(OC(F)(F)F)cc2)n1` [Compound I-50], the negative-log IC50 (pIC50) in experiment [1] and in experiment [2] was 3.30 to 4.00 in each case.

Turning to `CC(C)c1ccc(-c2nc(CC(=O)N[C@@H](Cc3c[nH]c4ccccc34)C(=O)O)cs2)cc1` [Compound I-51], the pIC50 in experiment [1] and in experiment [2] was 3.30 to 4.00 each time.

With `O=C(Cc1csc(-c2cccc(Br)c2)n1)N[C@@H](Cc1ccccc1)C(=O)O` [Compound I-52], the pIC50 in experiment [1] and in experiment [2] was 3.30 to 4.00 each time.

With `CC(C)c1ccc(-c2nc(CC(=O)N[C@@H](C(=O)O)c3ccccc3)cs2)cc1` [Compound I-54], the pIC50 in experiment [1] and in experiment [2] was 3.30 to 4.00 throughout.

Consider `O=C(Cc1csc(-c2ccc(Cl)cc2Cl)n1)N[C@@H](C(=O)O)c1ccccc1` [Compound I-55], for which the pIC50 in experiment [1] and in experiment [2] was 3.30 to 4.00 each time.

For `CC(C)c1ccc(-c2nc(CC(=O)N[C@@H](Cc3ccccc3)C(=O)O)cs2)cc1` [Compound I-56], the pIC50 in experiment [1] and in experiment [2] was 3.30 to 4.00 in each case.

As to `COc1ccccc1-c1nc(CC(=O)N[C@@H](C)C(=O)O)cs1` [Compound I-57], the values for the pIC50 in experiment [1] and in experiment [2] were 4.00 to 5.00 and 3.30 to 4.00, respectively.

Turning to `CC(C)[C@H](NC(=O)Cc1csc(-c2ccc(Cl)cc2Cl)n1)C(=O)O` [Compound I-58], the pIC50 in experiment [1] and in experiment [2] was 3.30 to 4.00 in each case.

With `O=C(O)CNC(=O)Cc1csc(-c2cccc(Cl)c2Cl)n1` [Compound I-59], the pIC50 in experiment [1] and in experiment [2] was 3.30 to 4.00 in each case.

With `O=C(Cc1csc(-c2cccc(Br)c2)n1)NC(Cc1ccccc1)C(=O)O` (stereo not drawn) [Compound I-60], the pIC50 in experiment [1] and in experiment [2] was 3.30 to 4.00 in each case.

Consider `COc1ccccc1-c1nc(CC(=O)NC(C)C(=O)O)cs1` (stereo not drawn) [Compound I-61], for which the figures for the pIC50 in experiment [1] and in experiment [2] were 4.00 to 5.00 and 3.30 to 4.00, respectively.

With `O=C(O)CNC(=O)Cc1csc(-c2ccc3c(c2)OCCO3)n1` [Compound I-62, 2-[2-[2-(2,3-dihydro-1,4-benzodioxin-6-yl)-1,3-thiazol-4-yl]acetamido]acetic Acid], the pIC50 in experiment [1] and in experiment [2] was 3.30 to 4.00 throughout.

With `O=C(Cc1csc(-c2ccc(Cl)cc2)n1)N[C@@H](C(=O)O)c1ccccc1` [Compound I-63], the pIC50 in experiment [1] and in experiment [2] was 3.30 to 4.00 each time.

As for `CC(C)(C(=O)NCC(=O)O)c1csc(-c2ccc(Cl)cc2Cl)n1` [Compound I-64, 2-[2-[2-(2,4-dichlorophenyl)-1,3-thiazol-4-yl]-2-methylpropanamido]acetic Acid], the negative logarithm of the IC50 (pIC50) in experiment [1] and in experiment [2] was 3.30 to 4.00 in each case.

Take `NC(=O)Cc1cc(Cl)ccc1-c1nc(CC(=O)NCC(=O)O)cs1` [Compound I-65, 2-(2-[2-[2-(carbamoylmethyl)-4-chlorophenyl]-1,3-thiazol-4-yl]acetamido)acetic Acid]: the negative-log IC50 (pIC50) in experiment [1] and in experiment [2] was 3.30 to 4.00 in each case.

Consider `O=C(O)CNC(=O)C(c1ccccc1)c1csc(-c2ccc(Cl)cc2Cl)n1` (stereo not drawn) [Compound I-66], for which the pIC50 was below 3.30 in experiment [1] and 3.30 to 4.00 in experiment [2].

For `CC[C@@H](C)[C@H](NC(=O)Cc1csc(-c2ccc(Cl)cc2Cl)n1)C(=O)O` [Compound I-67], the pIC50 in experiment [1] and in experiment [2] was 3.30 to 4.00 each time.

On to `O=C(Cc1csc(-c2cccc(Cl)c2)n1)N[C@@H](Cc1ccccc1)C(=O)O` [Compound I-68], for which the pIC50 in experiment [1] and in experiment [2] was 3.30 to 4.00 throughout.

With `O=C(Cc1csc(-c2ccccc2Cl)n1)N[C@@H](Cc1ccccc1)C(=O)O` [Compound I-69], the pIC50 in experiment [1] and in experiment [2] was 3.30 to 4.00 each time.

Turning to `O=C(O)CNC(=O)Cc1csc(-c2ccc(Cl)cc2CCO)n1` [Compound I-70, 2-(2-[2-[4-chloro-2-(2-hydroxyethyl)phenyl]-1,3-thiazol-4-yl]acetamido) acetic Acid], the pIC50 in experiment [1] and in experiment [2] was 3.30 to 4.00 throughout.

For the compound `C[C@H](NC(=O)Cc1csc(-c2ccccc2F)n1)C(=O)O` [Compound I-71], the pIC50 in experiment [1] and in experiment [2] was 3.30 to 4.00 in each case.

For the origin of these results see patent US11091451B2, “SHMT inhibitors and uses thereof” (Raze Therapeutics, Inc., priority 2016, dated 2021).
